These results are taken from ChEMBL document CHEMBL5604063, “ASAP - DENV-2 NS2B-NS3 protease fluorescence dose response” (2024).

Structures are written as SMILES. pIC50: −log10 of the molar value. Values joined by “and” are separate entries in the source; they are usually repeats but may differ in a detail not shown here. Identical values can stand only once.

Assay [1] concerns the target T1, Genome polyprotein (dengue virus type 2, UniProt P29990). The class given is functional, Thailand/16681/1984.
Assay [2] addresses T1, Genome polyprotein. Type of assay: functional, Thailand/16681/1984. This is another data set of the same source.

T1 sequence (P29990 1346-1475 limits assumed): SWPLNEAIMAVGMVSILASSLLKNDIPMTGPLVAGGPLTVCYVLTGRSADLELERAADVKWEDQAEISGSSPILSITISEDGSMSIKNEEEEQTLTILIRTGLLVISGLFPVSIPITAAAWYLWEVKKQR
T1 sequence (P29990 1476-2093 limits assumed): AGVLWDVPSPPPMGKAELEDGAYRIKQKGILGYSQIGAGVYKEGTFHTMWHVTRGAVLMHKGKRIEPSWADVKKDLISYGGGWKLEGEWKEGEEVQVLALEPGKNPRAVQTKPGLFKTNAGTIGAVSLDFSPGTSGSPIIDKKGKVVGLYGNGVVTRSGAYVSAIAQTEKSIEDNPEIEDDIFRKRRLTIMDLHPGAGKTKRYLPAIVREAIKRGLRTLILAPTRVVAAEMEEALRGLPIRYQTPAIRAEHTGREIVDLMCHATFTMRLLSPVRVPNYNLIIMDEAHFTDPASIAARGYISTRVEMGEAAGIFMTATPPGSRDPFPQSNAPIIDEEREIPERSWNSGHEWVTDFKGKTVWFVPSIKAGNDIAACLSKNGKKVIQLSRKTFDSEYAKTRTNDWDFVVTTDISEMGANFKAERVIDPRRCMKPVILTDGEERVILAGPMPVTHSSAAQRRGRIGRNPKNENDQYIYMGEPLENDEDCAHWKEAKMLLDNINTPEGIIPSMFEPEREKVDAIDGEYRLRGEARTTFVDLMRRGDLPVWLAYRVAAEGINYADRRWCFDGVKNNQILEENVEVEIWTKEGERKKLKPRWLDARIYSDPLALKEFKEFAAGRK

Broadly, the pIC50 is the IC50 on a negative log10 scale, so that one unit is a factor of ten. Regarding `Cc1cc(C(=O)Nc2ccc3c(c2)CNC3)c2cnn(C)c2n1`, the pIC50 against Genome polyprotein [1] and against Genome polyprotein [2] was < 4.00 in each case.
With `Cc1cccc(CNc2ccc(Cl)cc2C(=O)Nc2ccc3c(c2)CNC3)n1`, the pIC50 against Genome polyprotein [1] and on Genome polyprotein [2] was < 4.00 in each case.
Regarding `COc1cc(Br)cc2c1NC(=O)[C@]2(Nc1ccc2c(c1)CNC2)C(N)=O`, the negative logarithm of the IC50 (pIC50) against Genome polyprotein [1] and on Genome polyprotein [2] was < 4.00 each time.
Take `N#Cc1cc(Cl)cc(C(=O)Nc2ccc3c(c2)CNC3)c1`: the pIC50 at Genome polyprotein [1] and at Genome polyprotein [2] was < 4.00 in each case.
As for `Cn1cc2cc(Cl)cc(C(=O)Nc3ccc4c(c3)CNC4)c2n1`, the pIC50 on Genome polyprotein [1] was < 4.00; at Genome polyprotein [2] it was 4.16 and < 4.00.
With `O=C(Nc1ccc2c(c1)CNC2)c1nc2ccccc2s1`, the values for the pIC50 at Genome polyprotein [1] and against Genome polyprotein [2] were < 4.00 and 4.06, respectively.
Turning to `N#CCCNC(=O)[C@H](Nc1ccc2c(c1)CNC2)c1cc(Cl)cc(C2CC2)c1`, the pIC50 against Genome polyprotein [1] and against Genome polyprotein [2] was < 4.00 throughout.
`O=C(Nc1ccc2c(c1)CNC2)c1cc(Br)cc2[nH]c([C@H]3CCOC3)nc12`: the pIC50 was 4.01 against Genome polyprotein [1] and < 4.00 against Genome polyprotein [2].
As to `CNC(=O)[C@H](Nc1ccc2c(c1)CNC2)c1cc(Cl)cc(C2CC2)c1`, the pIC50 at Genome polyprotein [1] and against Genome polyprotein [2] was < 4.00 each time.
For `N#C[C@H](Nc1ccc2c(c1)CNC2)c1cc(Cl)cc(C2CC2)c1`, the pIC50 against Genome polyprotein [1] and on Genome polyprotein [2] was < 4.00 in each case.
For `CCCN1C(=O)[C@](Nc2ccc3c(c2)CNC3)(C(N)=O)c2cc(Cl)ccc21`, the pIC50 against Genome polyprotein [1] and on Genome polyprotein [2] was < 4.00 in each case.
For the compound `CC1(C)CN(C(=O)Nc2ccc3c(c2)CNC3)CC(F)(F)C1`, the pIC50 against Genome polyprotein [1] and at Genome polyprotein [2] was < 4.00 in each case.
In the case of `CNC(=O)[C@]1(Nc2ccc3c(c2)CNC3)C(=O)Nc2ccc(Cl)cc21`, the pIC50 at Genome polyprotein [1] and on Genome polyprotein [2] was < 4.00 each time.
For the compound `NS(=O)(=O)c1cc(Cl)cc(C(=O)Nc2ccc3c(c2)CNC3)c1`, the pIC50 against Genome polyprotein [1] and on Genome polyprotein [2] was < 4.00 throughout.
As for `O=C(Nc1ccc2c(c1)CNC2)c1cc2ccccc2[nH]1`, the pIC50 on Genome polyprotein [1] and against Genome polyprotein [2] was < 4.00 in each case.
Regarding `Cn1cc(CCc2nc3c(C(=O)Nc4ccc5c(c4)CNC5)cc(Cl)cc3[nH]2)cn1`, the pIC50 is 4.49 against Genome polyprotein [1]; 4.71 and 4.66 at Genome polyprotein [2].
With `O=C(Nc1ccc2c(c1)CNC2)c1cc(Cl)nc2[nH]ncc12`, the pIC50 against Genome polyprotein [1] and on Genome polyprotein [2] was < 4.00 each time.
Regarding `Cc1c(C(=O)Nc2cc(CN(C)C)ccn2)cc(C2CC2)n1C`, the pIC50 on Genome polyprotein [1] and against Genome polyprotein [2] was < 4.00 each time.
In the case of `O=C(Nc1ccc2c(c1)CNC2)N1CCC[C@H](CC2CCC2)C1`, the pIC50 at Genome polyprotein [1] and against Genome polyprotein [2] was < 4.00 each time.
For `NCCCc1ccnc(NC(=O)c2cnn3c2CCC3)c1`, the pIC50 on Genome polyprotein [1] and against Genome polyprotein [2] was < 4.00 each time.
Regarding `CCS(=O)(=O)c1ccc(Cl)cc1C(=O)Nc1ccc2c(c1)CNC2`, the pIC50 at Genome polyprotein [1] and at Genome polyprotein [2] was < 4.00 throughout.
For `O=C(Nc1ccc2c(c1)CNC2)c1ccc2scnc2c1`, the pIC50 is 4.63 and 4.98 against Genome polyprotein [1]; 4.38 and 4.35 against Genome polyprotein [2].
In the case of `O=C(Nc1ccc2c[nH]nc2c1)c1cc(Cl)cc2[nH]ncc12`, the pIC50 against Genome polyprotein [1] and against Genome polyprotein [2] was < 4.00 each time.
On to `COc1ccc(CN2Cc3cc(NC(=O)c4cc(Cl)cc5[nH]ncc45)cc(Br)c3C2)cc1`, for which the pIC50 on Genome polyprotein [1] and on Genome polyprotein [2] was < 4.00 throughout.
As for `COCCc1ccnc(NC(=O)c2cc(C3CC3)n(C)c2C)c1`, the pIC50 against Genome polyprotein [1] and against Genome polyprotein [2] was < 4.00 each time.
Regarding `O=C(Nc1ccc2c(c1)CNC2)N1CC(F)(F)CC2(CCC2)C1`, the pIC50 against Genome polyprotein [1] and on Genome polyprotein [2] was < 4.00 in each case.
Turning to `NCCCc1ccnc(NC(=O)c2nnc(C3CC3)s2)c1`, the pIC50 on Genome polyprotein [1] and on Genome polyprotein [2] was < 4.00 in each case.
Consider `CC1([C@H]2CCCN(C(=O)Nc3ccc4c(c3)CNC4)C2)CC1`, for which the pIC50 against Genome polyprotein [1] and against Genome polyprotein [2] was < 4.00 each time.
Consider `CCCN1C(=O)[C@](Nc2ccc3c(c2)CNC3)(C(=O)NC)c2cc(Cl)ccc21`, for which the pIC50 against Genome polyprotein [1] and at Genome polyprotein [2] was < 4.00 each time.
